Reference: PubChem BioAssay AID2060489 (Molecular Pharmacology Branch, DTP, NCI, 2025)

Tested on: 922993-354-T-J3-PDC complex spheroids, viability
Assay: Anticancer human tumor 922993-354-T-J3-PDC patient-derived endometrial carcinoma cell line growth inhibition [GQUAD]
Settings: for IC50: curve of first compound; for viability, T/C: stronger effect = lower value
Outline: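 Multi-cell-type spheroids of tumor cells with HUVEC and mesenchymal stem cells, treated with drug combinations. Concentrations descend in half-log steps from near clinical Cmax, or from 10 microM where Cmax is unknown; viability read-out.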

[1] = second compound 0.0316 µM, first compound 0.0316 µM
[2] = second compound 0.0316 µM, first compound 0.1 µM
[3] = second compound 0.0316 µM, first compound 0.316 µM
[4] = second compound 0.0316 µM, first compound 1 µM
[5] = second compound 0.0316 µM, first compound 3.16 µM
[6] = second compound 0.0316 µM, first compound 10 µM
[7] = second compound 0.1 µM, first compound 0.0316 µM
[8] = second compound 0.1 µM, first compound 0.1 µM
[9] = second compound 0.1 µM, first compound 0.316 µM
[10] = second compound 0.1 µM, first compound 1 µM
[11] = second compound 0.1 µM, first compound 3.16 µM
[12] = second compound 0.1 µM, first compound 10 µM
[13] = second compound 0.316 µM, first compound 0.0316 µM
[14] = second compound 0.316 µM, first compound 0.1 µM
[15] = second compound 0.316 µM, first compound 0.316 µM
[16] = second compound 0.316 µM, first compound 1 µM
[17] = second compound 0.316 µM, first compound 3.16 µM
[18] = second compound 0.316 µM, first compound 10 µM
[19] = second compound 1 µM, first compound 0.0316 µM
[20] = second compound 1 µM, first compound 0.1 µM
[21] = second compound 1 µM, first compound 0.316 µM
[22] = second compound 1 µM, first compound 1 µM
[23] = second compound 1 µM, first compound 3.16 µM
[24] = second compound 1 µM, first compound 10 µM
[25] = second compound 3.16 µM, first compound 0.0316 µM
[26] = second compound 3.16 µM, first compound 0.1 µM
[27] = second compound 3.16 µM, first compound 0.316 µM
[28] = second compound 3.16 µM, first compound 1 µM
[29] = second compound 3.16 µM, first compound 3.16 µM
[30] = second compound 3.16 µM, first compound 10 µM
[31] = second compound 10 µM, first compound 0.0316 µM
[32] = second compound 10 µM, first compound 0.1 µM
[33] = second compound 10 µM, first compound 0.316 µM
[34] = second compound 10 µM, first compound 1 µM
[35] = second compound 10 µM, first compound 3.16 µM
[36] = second compound 10 µM, first compound 10 µM
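Further: spheroids exposed to compounds for seven days.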
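Wherever viability, T/C is given: 100% = DMSO vehicle control viability.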

Compound: CC(C)(O)C1CCC(Nc2ccc3ncc(-c4cccc(C(F)(F)F)c4)n3n2)CC1 (stereo not drawn) + CN(C)c1ccc(Nc2c3ccc(NC(=O)CCN4CCCC4)cc3nc3cc(NC(=O)CCN4CCCC4)ccc23)cc1
- IC50 (second compound 0.0316 µM): > 10 µM
- IC50 (second compound 0.1 µM): > 10 µM
- IC50 (second compound 0.316 µM): > 10 µM
- IC50 (second compound 1 µM): > 10 µM
- IC50 (second compound 3.16 µM): > 10 µM
- IC50 (second compound 10 µM): > 10 µM
- viability, T/C [1]: 78.5%
- viability, T/C [2]: 92.8%
- viability, T/C [3]: 99.9%
- viability, T/C [4]: 80.2%
- viability, T/C [5]: 85.1%
- viability, T/C [6]: 92.3%
- viability, T/C [7]: 100%
- viability, T/C [8]: 91%
- viability, T/C [9]: 88.6%
- viability, T/C [10]: 87.6%
- viability, T/C [11]: 76.6%
- viability, T/C [12]: 81.2%
- viability, T/C [13]: 108%
- viability, T/C [14]: 83%
- viability, T/C [15]: 96.5%
- viability, T/C [16]: 89.7%
- viability, T/C [17]: 58%
- viability, T/C [18]: 63.3%
- viability, T/C [19]: 69.5%
- viability, T/C [20]: 96.2%
- viability, T/C [21]: 79%
- viability, T/C [22]: 75.2%
- viability, T/C [23]: 78.9%
- viability, T/C [24]: 61.2%
- viability, T/C [25]: 92%
- viability, T/C [26]: 95%
- viability, T/C [27]: 90.4%
- viability, T/C [28]: 94.3%
- viability, T/C [29]: 85%
- viability, T/C [30]: 74.4%
- viability, T/C [31]: 120%
- viability, T/C [32]: 140%
- viability, T/C [33]: 103%
- viability, T/C [34]: 88.8%
- viability, T/C [35]: 78.3%
- viability, T/C [36]: 55%

Compound: CCCS(=O)(=O)Nc1ccc(F)c(C(=O)c2c[nH]c3ncc(-c4ccc(Cl)cc4)cc23)c1F + CN(C)c1ccc(Nc2c3ccc(NC(=O)CCN4CCCC4)cc3nc3cc(NC(=O)CCN4CCCC4)ccc23)cc1
- IC50 (second compound 0.0316 µM): > 10 µM
- IC50 (second compound 0.1 µM): 8.45 µM
- IC50 (second compound 0.316 µM): > 10 µM
- IC50 (second compound 1 µM): > 10 µM
- IC50 (second compound 3.16 µM): > 10 µM
- IC50 (second compound 10 µM): > 10 µM
- viability, T/C [1]: 91.6%
- viability, T/C [2]: 94.2%
- viability, T/C [3]: 103%
- viability, T/C [4]: 66.5%
- viability, T/C [5]: 72.2%
- viability, T/C [6]: 60.6%
- viability, T/C [7]: 78.2%
- viability, T/C [8]: 83.9%
- viability, T/C [9]: 95%
- viability, T/C [10]: 80.3%
- viability, T/C [11]: 68.1%
- viability, T/C [12]: 46.9%
- viability, T/C [13]: 105%
- viability, T/C [14]: 78.5%
- viability, T/C [15]: 89.6%
- viability, T/C [16]: 94.7%
- viability, T/C [17]: 83.1%
- viability, T/C [18]: 68.1%
- viability, T/C [19]: 82.5%
- viability, T/C [20]: 86%
- viability, T/C [21]: 83.3%
- viability, T/C [22]: 80.2%
- viability, T/C [23]: 79.3%
- viability, T/C [24]: 60.8%
- viability, T/C [25]: 97.5%
- viability, T/C [26]: 101%
- viability, T/C [27]: 108%
- viability, T/C [28]: 87.8%
- viability, T/C [29]: 84.9%
- viability, T/C [30]: 53.8%
- viability, T/C [31]: 103%
- viability, T/C [32]: 111%
- viability, T/C [33]: 131%
- viability, T/C [34]: 122%
- viability, T/C [35]: 115%
- viability, T/C [36]: 78.4%

Compound: COc1ncnc(C2CC2)c1-c1ncc2cnn(Cc3ccc(-c4nc(C(F)(F)F)cn4C(C)C)cc3)c2n1 + CN(C)c1ccc(Nc2c3ccc(NC(=O)CCN4CCCC4)cc3nc3cc(NC(=O)CCN4CCCC4)ccc23)cc1
- IC50 (second compound 0.0316 µM): > 10 µM
- IC50 (second compound 0.1 µM): > 10 µM
- IC50 (second compound 0.316 µM): > 10 µM
- IC50 (second compound 1 µM): > 10 µM
- IC50 (second compound 3.16 µM): > 10 µM
- IC50 (second compound 10 µM): > 10 µM
- viability, T/C [1]: 94.4%
- viability, T/C [2]: 96.5%
- viability, T/C [3]: 84%
- viability, T/C [4]: 72.3%
- viability, T/C [5]: 63.5%
- viability, T/C [6]: 87.7%
- viability, T/C [7]: 86%
- viability, T/C [8]: 86.7%
- viability, T/C [9]: 80.9%
- viability, T/C [10]: 86.6%
- viability, T/C [11]: 101%
- viability, T/C [12]: 67.2%
- viability, T/C [13]: 90.8%
- viability, T/C [14]: 86%
- viability, T/C [15]: 74.2%
- viability, T/C [16]: 81.2%
- viability, T/C [17]: 90.1%
- viability, T/C [18]: 74.2%
- viability, T/C [19]: 73.8%
- viability, T/C [20]: 86.4%
- viability, T/C [21]: 93.6%
- viability, T/C [22]: 74.3%
- viability, T/C [23]: 90.4%
- viability, T/C [24]: 76.8%
- viability, T/C [25]: 98.3%
- viability, T/C [26]: 109%
- viability, T/C [27]: 108%
- viability, T/C [28]: 98.3%
- viability, T/C [29]: 108%
- viability, T/C [30]: 76.6%
- viability, T/C [31]: 115%
- viability, T/C [32]: 116%
- viability, T/C [33]: 86.6%
- viability, T/C [34]: 107%
- viability, T/C [35]: 101%
- viability, T/C [36]: 62.9%

Compound: COc1ccc([C@@H](O)c2cc(-c3ncnc4cc(N5CCOCC5)ccc34)c(F)cc2Cl)nn1 + Cc1[nH]c2ccc(F)cc2c1-c1nc2c3cccnc3c3ncccc3c2[nH]1
- IC50 (second compound 0.0316 µM): 9.14 µM
- IC50 (second compound 0.1 µM): > 10 µM
- IC50 (second compound 0.316 µM): 8.51 µM
- IC50 (second compound 1 µM): > 10 µM
- IC50 (second compound 3.16 µM): > 10 µM
- IC50 (second compound 10 µM): > 10 µM
- viability, T/C [1]: 107%
- viability, T/C [2]: 112%
- viability, T/C [3]: 92.9%
- viability, T/C [4]: 90%
- viability, T/C [5]: 95.8%
- viability, T/C [6]: 45.7%
- viability, T/C [7]: 123%
- viability, T/C [8]: 115%
- viability, T/C [9]: 114%
- viability, T/C [10]: 94.9%
- viability, T/C [11]: 115%
- viability, T/C [12]: 58.1%
- viability, T/C [13]: 106%
- viability, T/C [14]: 116%
- viability, T/C [15]: 94%
- viability, T/C [16]: 100%
- viability, T/C [17]: 86.8%
- viability, T/C [18]: 43.4%
- viability, T/C [19]: 114%
- viability, T/C [20]: 108%
- viability, T/C [21]: 72.2%
- viability, T/C [22]: 88.6%
- viability, T/C [23]: 97.1%
- viability, T/C [24]: 68.2%
- viability, T/C [25]: 101%
- viability, T/C [26]: 101%
- viability, T/C [27]: 93.9%
- viability, T/C [28]: 103%
- viability, T/C [29]: 88.9%
- viability, T/C [30]: 66.1%
- viability, T/C [31]: 84.6%
- viability, T/C [32]: 88.6%
- viability, T/C [33]: 109%
- viability, T/C [34]: 90.8%
- viability, T/C [35]: 108%
- viability, T/C [36]: 61.6%
